Values joined by “and” are separate entries in the source; they are usually repeats but may differ in a detail not shown here. Equal values may be shown once. Active and inactive are the calls of the source. How the calls were made is not given here.

For this data set, the system named is rodent lifetime carcinogenesis bioassay, tumor incidence TD50. Nature of the data set: chronic cancer bioassays in animals – CPDB, compiled studies (AID 1745844).

As usually defined, the TD50 is the dose at which the toxic effect under study appears in half of the subjects. With `CC(=O)CN(N=O)C(=O)NCCCl`, the TD50 reads like this: (hamster, strain Syrian Golden, females, by gavage, site: spleen, lesion: all vascular tumors, dosed 43 weeks, study length 75 weeks) 0.774 mg/kg/day; (hamster, strain Syrian Golden, males, by gavage, site: spleen, lesion: hemangiosarcoma, dosed 43 weeks, study length 75 weeks) 0.216 mg/kg/day; (rat, strain Fischer 344, females, by gavage, site: liver, lesion: one or several types, types not named, dosed 30 weeks, study length 104 weeks) 1.36 mg/kg/day; (rat, strain Fischer 344, females, by gavage, site: nervous system, lesion: one or several types, types not named, dosed 30 weeks, study length 104 weeks) 4.49 mg/kg/day; (rat, strain Fischer 344, females, in drinking water, site: lung, lesion: one or several types, types not named, dosed 30 weeks, study length 104 weeks) 4.49 mg/kg/day; (rat, strain Fischer 344, females, in drinking water, site: nervous system, lesion: one or several types, types not named, dosed 30 weeks, study length 104 weeks) 4.49 mg/kg/day. This compound also yielded a TD50 (rat, strain Fischer 344, males, by gavage, site: lung, lesion: one or several types, types not named, dosed 30 weeks, study length 104 weeks) of 3.14 mg/kg/day; a TD50 (rat, strain Fischer 344, males, by gavage, site: nervous system, lesion: one or several types, types not named, dosed 30 weeks, study length 104 weeks) of 0.951 mg/kg/day; a TD50 (rat, strain Fischer 344, males, in drinking water, site: liver, lesion: one or several types, types not named, dosed 30 weeks, study length 104 weeks) of 3.14 mg/kg/day; a TD50 (rat, strain Fischer 344, males, in drinking water, site: lung, lesion: one or several types, types not named, dosed 30 weeks, study length 104 weeks) of 1.5 mg/kg/day; a TD50 (rat, strain Fischer 344, males, in drinking water, site: nervous system, lesion: one or several types, types not named, dosed 30 weeks, study length 104 weeks) of 3.14 mg/kg/day.
Regarding `O=NN1CN2CN(C1)CN(N=O)C2`, the carcinogen call (rat, strain CB, males, i.p., site: liver, lesion: hepatoma, dosed 26 weeks, study length 100 weeks) is “negative (inactive)”.
For `Cn1cc(OCC(O)CNC(C)(C)C)c2ccccc2c1=O` (configuration not stated), the carcinogen call by setting is: (mouse, strain Charles River CD1, females, by gavage, site: any site (literature study), lesion: several types, types named in the paper, dosed 80 weeks, study length 80 weeks) “negative (inactive)”; (mouse, strain Charles River CD1, females, by gavage, site: liver, lesion: one or several types, types not named, dosed 80 weeks, study length 80 weeks) “negative (inactive)”; (mouse, strain Charles River CD1, females, by gavage, site: lung, lesion: adenocarcinoma, dosed 80 weeks, study length 80 weeks) “negative (inactive)”; (mouse, strain Charles River CD1, males, by gavage, site: liver, lesion: hepatocellular carcinoma, dosed 80 weeks, study length 80 weeks) “negative (inactive)”; (rat, strain Charles River CD (Sprague-Dawley), females, by gavage, site: liver, lesion: hepatocellular adenoma, dosed 104 weeks, study length 104 weeks) “negative (inactive)”; (rat, strain Charles River CD (Sprague-Dawley), males, by gavage, site: liver, lesion: hepatocellular carcinoma, dosed 104 weeks, study length 104 weeks) “negative (inactive)”. In addition, the TD50 is, setting by setting: (mouse, strain Charles River CD1, females, by gavage, site: lung, lesion: adenoma, dosed 80 weeks, study length 80 weeks) 843 mg/kg/day (inactive); (mouse, strain Charles River CD1, males, by gavage, site: any site (literature study), lesion: several types, types named in the paper, dosed 80 weeks, study length 80 weeks) 256 mg/kg/day (inactive); (mouse, strain Charles River CD1, males, by gavage, site: liver, lesion: hepatocellular adenoma, dosed 80 weeks, study length 80 weeks) 131 mg/kg/day (inactive); (mouse, strain Charles River CD1, males, by gavage, site: lung, lesion: adenocarcinoma, dosed 80 weeks, study length 80 weeks) 99.2 mg/kg/day (inactive); (mouse, strain Charles River CD1, males, by gavage, site: lung, lesion: adenoma, dosed 80 weeks, study length 80 weeks) 7200 mg/kg/day (inactive); (rat, strain Charles River CD (Sprague-Dawley), females, by gavage, site: any site (literature study), lesion: several types, types named in the paper, dosed 104 weeks, study length 104 weeks) 40 mg/kg/day (inactive). The TD50 was 128 mg/kg/day (inactive) (rat, strain Charles River CD (Sprague-Dawley), males, by gavage, site: any site (literature study), lesion: several types, types named in the paper, dosed 104 weeks, study length 104 weeks) and 384 mg/kg/day (inactive) (rat, strain Charles River CD (Sprague-Dawley), males, by gavage, site: liver, lesion: hepatocellular adenoma, dosed 104 weeks, study length 104 weeks).
In the case of `NNc1ccc(C(=O)O)cc1`, the TD50 was 2660 mg/kg/day (mouse, strain Swiss albino, females, in drinking water, site: aorta and large arteries, lesion: leiomyoma, dosed 121 weeks, study length 121 weeks); 1970 mg/kg/day (mouse, strain Swiss albino, females, in drinking water, site: aorta and large arteries, lesion: leiomyosarcoma, dosed 121 weeks, study length 121 weeks); 1070 mg/kg/day (mouse, strain Swiss albino, females, in drinking water, site: aorta and large arteries, lesion: several types, types named in the paper, dosed 121 weeks, study length 121 weeks); 11200 mg/kg/day (mouse, strain Swiss albino, females, in drinking water, site: lung, lesion: adenocarcinoma, dosed 121 weeks, study length 121 weeks); 1170 mg/kg/day (mouse, strain Swiss albino, females, in drinking water, site: lung, lesion: adenoma, dosed 121 weeks, study length 121 weeks); 1140 mg/kg/day (mouse, strain Swiss albino, females, in drinking water, site: lung, lesion: several types, types named in the paper, dosed 121 weeks, study length 121 weeks). Moreover, the TD50 is 1490 mg/kg/day (mouse, strain Swiss albino, males, in drinking water, site: aorta and large arteries, lesion: leiomyoma, dosed 120 weeks, study length 120 weeks); 609 mg/kg/day (mouse, strain Swiss albino, males, in drinking water, site: aorta and large arteries, lesion: leiomyosarcoma, dosed 120 weeks, study length 120 weeks); 380 mg/kg/day (mouse, strain Swiss albino, males, in drinking water, site: aorta and large arteries, lesion: several types, types named in the paper, dosed 120 weeks, study length 120 weeks); 597 mg/kg/day (mouse, strain Swiss albino, males, in drinking water, site: lung, lesion: adenoma, dosed 120 weeks, study length 120 weeks); 675 mg/kg/day (mouse, strain Swiss albino, males, in drinking water, site: lung, lesion: several types, types named in the paper, dosed 120 weeks, study length 120 weeks). For the same compound, the carcinogen call (mouse, strain Swiss, females, by gavage, site: lung, lesion: one or several types, types not named, dosed 40 weeks, study length 55 weeks) is “negative (inactive)”.
Consider `c1ccncc1`, for which the TD50 is 690 mg/kg/day (mouse, strain B6C3F1, females, in drinking water, site: all sites, lesion: hemangioma + hemangiosarcoma, dosed 104 weeks, study length 104 weeks); 868 mg/kg/day (mouse, strain B6C3F1, females, in drinking water, site: all sites, lesion: hemangioma, dosed 104 weeks, study length 104 weeks); 338 mg/kg/day (mouse, strain B6C3F1, females, in drinking water, site: any site (literature study), lesion: several types, types named in the paper, dosed 104 weeks, study length 104 weeks); 27.2 mg/kg/day (mouse, strain B6C3F1, females, in drinking water, site: liver, lesion: hepatoblastoma + hepatocellular carcinoma, dosed 104 weeks, study length 104 weeks); 132 mg/kg/day (mouse, strain B6C3F1, females, in drinking water, site: liver, lesion: hepatoblastoma, dosed 104 weeks, study length 104 weeks); 150 mg/kg/day (mouse, strain B6C3F1, females, in drinking water, site: liver, lesion: hepatocellular adenoma + hepatoblastoma + hepatocellular carcinoma, dosed 104 weeks, study length 104 weeks). Besides, the TD50 was 41.9 mg/kg/day (mouse, strain B6C3F1, females, in drinking water, site: liver, lesion: hepatocellular adenoma, dosed 104 weeks, study length 104 weeks); 41.6 mg/kg/day (mouse, strain B6C3F1, females, in drinking water, site: liver, lesion: hepatocellular carcinoma, dosed 104 weeks, study length 104 weeks); 1990 mg/kg/day (mouse, strain B6C3F1, females, in drinking water, site: lung, lesion: alveolar/bronchiolar adenoma + alveolar/bronchiolar carcinoma, dosed 104 weeks, study length 104 weeks); 25700 mg/kg/day (mouse, strain B6C3F1, males, in drinking water, site: any site (literature study), lesion: several types, types named in the paper, dosed 103 weeks, study length 103 weeks); 22.1 mg/kg/day (mouse, strain B6C3F1, males, in drinking water, site: liver, lesion: hepatoblastoma + hepatocellular carcinoma, dosed 103 weeks, study length 103 weeks); 68.1 mg/kg/day (mouse, strain B6C3F1, males, in drinking water, site: liver, lesion: hepatoblastoma, dosed 103 weeks, study length 103 weeks). In addition, the TD50 is 496 mg/kg/day (mouse, strain B6C3F1, males, in drinking water, site: liver, lesion: hepatocellular adenoma + hepatoblastoma + hepatocellular carcinoma, dosed 103 weeks, study length 103 weeks); 488 mg/kg/day (mouse, strain B6C3F1, males, in drinking water, site: liver, lesion: hepatocellular adenoma, dosed 103 weeks, study length 103 weeks); 28.6 mg/kg/day (mouse, strain B6C3F1, males, in drinking water, site: liver, lesion: hepatocellular carcinoma, dosed 103 weeks, study length 103 weeks); 31.2 mg/kg/day (rat, strain Fischer 344, females, in drinking water, site: all sites, lesion: mononuclear-cell leukemia, dosed 104 weeks, study length 104 weeks); 32.9 mg/kg/day (rat, strain Fischer 344, females, in drinking water, site: any site (literature study), lesion: several types, types named in the paper, dosed 104 weeks, study length 104 weeks); 31 mg/kg/day (rat, strain Fischer 344, males, in drinking water, site: any site (literature study), lesion: several types, types named in the paper, dosed 103 weeks, study length 103 weeks). For the same compound, the TD50 by setting is: (rat, strain Fischer 344, males, in drinking water, site: kidney, lesion: tubule adenoma + tubule carcinoma, dosed 103 weeks, study length 103 weeks) 67.3 mg/kg/day and 74.6 mg/kg/day; (rat, strain Fischer 344, males, in drinking water, site: kidney, lesion: tubule adenoma, dosed 103 weeks, study length 103 weeks) 73.7 mg/kg/day and 75.6 mg/kg/day; (rat, strain Fischer 344, males, in drinking water, site: liver, lesion: hepatocellular adenoma + hepatoblastoma + hepatocellular carcinoma, dosed 103 weeks, study length 103 weeks) 160 mg/kg/day; (rat, strain Wistar, males, in drinking water, site: any site (literature study), lesion: several types, types named in the paper, dosed 103 weeks, study length 103 weeks) 7.14 mg/kg/day; (rat, strain Wistar, males, in drinking water, site: testis, lesion: interstitial-cell adenoma, bilateral + interstitial-cell adenoma, dosed 103 weeks, study length 103 weeks) 22.4 mg/kg/day; (rat, strain Wistar, males, in drinking water, site: thyroid gland, lesion: follicular-cell adenoma, bilateral + follicular-cell adenoma, dosed 103 weeks, study length 103 weeks) 38.4 mg/kg/day.

Source of the values: PubChem BioAssay AID1745844 (Carcinogenic Potency Database (CPDB), 2022).
